Assay results as given in patent US9943506B2, “BCL6 inhibitors as anticancer agents” (Cornell University, priority 2013, dated 2018).
Like-named read-outs stand apart in the source and are kept apart here.

Columns and labels:
Ly3 DLBCL cells = assay: Growth inhibition of DLBCL cells, Ly3; format: cell-based; settings: Bcl6 dependent, read-out: GI 50 Ly3
Method: (§1) 50,000 cells per well were treated for 48 hours with different concentrations of the compounds in 96 well plates, using DMSO as a control. Then, viability was determined with Cell Titer Blue™ (Promega) and growth inhibition was calculated as the percentage of viable cells with respect to cells treated with DMSO alone. GI50 values were determined by dose-response curves.
(§2) 293T cells were grown in Dulbecco's modified Eagles medium supplemented with 10% fetal bovine serum (FBS) (Gemini Bio-Products, Woodland, Calif.) and 1% penicillin-streptomycin. DLBCL cell lines OCI-Ly1, OCI-Ly1-B50, OCI-Ly7, OCI-Ly10 and OCI-Ly19 were grown in 80% Iscove's medium, 20% FBS and penicillin G/streptomycin. DLBCL cell lines Toledo, Farage, SU-DHL4, DOHH-2, SC-1, RCK8, TMD8, HBL-1, Ly3, Karpas 422 and SU-DHL6 were cultured in 90% RPMI medium, 10% FBS, 2 mM glutamine, 10 mM Hepes and penicillin G/streptomycin. All cell lines were cultured at 37° C. in a humidified atmosphere of 5% CO2.

Ly7 DLBCL cells = assay: Growth inhibition of DLBCL cells, Ly7; format: cell-based
Method: as §1, §2

Ly10 DLBCL cells = assay: Growth inhibition of DLBCL cells, Ly10; format: cell-based; settings: Table 9, Bcl6 dependent, read-out: GI 50 Ly10
Method: as §1, §2

SUDHL6 DLBCL cells = assay: Growth inhibition of DLBCL cells, SUDHL6; format: cell-based; settings: Homo sapiens, SU-DHL-6
Method: as §1, §2

Karpas 422 DLBCL cells = assay: Growth inhibition of DLBCL cells, Karpas 422; format: cell-based; settings: Homo sapiens, read-out: GI 50 K422
Method: as §1, §2

Toledo DLBCL cells = assay: Growth inhibition of DLBCL cells, Toledo; format: cell-based; settings: Homo sapiens
Method: as §1, §2

Ly1B50 DLBCL cells = assay: Growth inhibition of DLBCL cells, Ly1B50; format: cell-based; settings: Bcl6 independent, read-out: GI 50 Ly1B50
Method: as §1, §2

Ly1 DLBCL cells = assay: Growth inhibition of DLBCL cells, Ly1; format: cell-based; settings: Bcl6 dependent, read-out: GI 50 Ly1
Method: as §1, §2

WSU-DLCL2 DLBCL cells = assay: Growth inhibition of DLBCL cells, WSU-DLCL2; format: cell-based; settings: Homo sapiens, WSUDLCL2, Bcl6 independent, read-out: GI 50 WSUDLCL2
Method: as §1

Ly4 DLBCL cells = assay: Growth inhibition of DLBCL cells, Ly4; format: cell-based; settings: Table 9; Bcl6 independent; read-out: GI 50 Ly4
Method: as §1

BCL6-BTB = BCL6-BTB (Homo sapiens, UniProt P41182); assay: MicroScale Thermophoresis binding to BCL6-BTB; settings: Table 10
Method: BCL6 is also required for normal development of germinal center (GC) B-cells.
Recombinant BCL6-BTB was labeled using the RED-NHS Labeling kit (NanoTemper Technologies). […] The label:protein ratio was determined using photometry at 650 nm and Bradford reagent. […] The labeled BCL6-BTB was adjusted to 400 nM with PBS (Thermo) buffer supplemented with 0.05% Tween-80 (Fisher scientific). […] After 10 min incubation, approximately 4 μL of each solution was filled into Monolith NT Standard Treated Capillaries (NanoTemper Technologies GmbH). Thermophoresis was measured using a Monolith NT.115 instrument (NanoTemper Technologies GmbH) at an ambient temperature of 25° C. with 5 s/30 s/5 s laser off/on/off times, respectively. Instrument parameters were adjusted with 90% LED power and 40% MST power. Data of three independent experiments were analyzed (NT.Analysis software version 1.5.41, NanoTemper Technologies) using the signal from Thermophoresis.

[1] = Table 9, Bcl6 dependent, read-out: GI 50 Ly7
[2] = Table 9, Bcl6 dependent, read-out: GI 50 SUDHL6
[3] = Table 10, BCL6 dependent, read-out: GI50 SUDHL6
[4] = Table 9, Bcl6 independent, read-out: GI 50 Toledo
[5] = Table 4, Bcl6 dependent, read-out: GI 50 Ly7
[6] = Table 4, Bcl6 dependent, read-out: GI 50 SUDHL6
[7] = Table 4, Bcl6 independent, read-out: GI 50 Toledo

| SMILES | GI50 (SUDHL6 DLBCL cells; [2]) [µM] | GI50 (SUDHL6 DLBCL cells; [3]) [µM] | GI50 (Karpas 422 DLBCL cells; Table 9, Bcl6 independent) [µM] | GI50 (SUDHL6 DLBCL cells; [6]) [µM] | GI50 (Karpas 422 DLBCL cells; Table 4, Bcl6 independent) [µM] | GI50 (Ly3 DLBCL cells; Table 9) [µM] | GI50 (Ly7 DLBCL cells; [1]) [µM] | GI50 (Ly7 DLBCL cells; Table 10, BCL6 dependent) [µM] | GI50 (Ly10 DLBCL cells) [µM] | GI50 (Toledo DLBCL cells; [4]) [µM] | GI50 (Toledo DLBCL cells; Table 10, BCL6 independent) [µM] | GI50 (Ly1B50 DLBCL cells; Table 9) [µM] | GI50 (Ly1 DLBCL cells; Table 9) [µM] | GI50 (WSU-DLCL2 DLBCL cells; Table 9) [µM] | GI50 (Ly3 DLBCL cells; Table 4) [µM] | GI50 (Ly7 DLBCL cells; [5]) [µM] | GI50 (Toledo DLBCL cells; [7]) [µM] | GI50 (Ly1B50 DLBCL cells; Table 4) [µM] | GI50 (Ly1 DLBCL cells; Table 4) [µM] | GI50 (WSU-DLCL2 DLBCL cells; Table 4) [µM] | also measured |
| --- | --- | --- | --- | --- | --- | --- | --- | --- | --- | --- | --- | --- | --- | --- | --- | --- | --- | --- | --- | --- | --- |
| O=C(CN1C(=O)C(=O)c2cc(Cl)ccc21)OCc1ccc(Cl)cc1 [Compound 355] | 1 | 42 ± 10 | 38 | – | – | 54 | 45 | 43 ± 3 | 62 | 35 | 45 ± 7 | 55 | 37 | 52 | – | – | – | – | – | – | GI50 (Ly4 DLBCL cells): 81 µM |
| O=C(CN1C(=O)C(=O)c2cc(Cl)ccc21)OCc1ccc(F)cc1 [Compound 357] | 1 | 22 ± 3 | 58 | – | – | 79 | 25 | 30 ± 10 | 60 | 51 | 50 ± 1 | 56 | 81 | 100 | – | – | – | – | – | – | GI50 (Ly4 DLBCL cells): > 125 µM |
| O=C(CN1C(=O)C(=O)c2cc(Cl)ccc21)OCc1cccc(F)c1 [Compound 358] | 2 | 27 ± 4 | > 125 | – | – | > 125 | 20 | 40 ± 10 | > 125 | 69 | 82 ± 20 | > 125 | > 125 | > 125 | – | – | – | – | – | – | GI50 (Ly4 DLBCL cells): > 125 µM |
| O=C(CN1C(=O)C(=O)c2cc(Cl)ccc21)OCc1ccsc1 [Compound 367] | – | 15 ± 7 | – | – | – | – | – | 22 ± 4 | – | – | 53 ± 10 | – | – | – | – | – | – | – | – | – | Kd (BCL6-BTB): 324 ± 34 µM |
| Cc1cccc(COC(=O)CN2C(=O)/C(=C3\SC(=S)N(CCC(=O)O)C3=O)c3cc(Cl)ccc32)c1 [Compound 374] | – | – | – | 48 ± 17 | > 125 | – | – | – | – | – | – | – | – | – | > 125 | > 125 | > 125 | > 125 | > 125 | 99 ± 20 | – |

Continued, in another order:

| GI50 (SUDHL6 DLBCL cells; [2]) [µM] | GI50 (SUDHL6 DLBCL cells; [3]) [µM] | GI50 (Karpas 422 DLBCL cells; Table 9, Bcl6 independent) [µM] | GI50 (SUDHL6 DLBCL cells; [6]) [µM] | GI50 (Karpas 422 DLBCL cells; Table 4, Bcl6 independent) [µM] | SMILES | GI50 (Ly3 DLBCL cells; Table 9) [µM] | GI50 (Ly7 DLBCL cells; [1]) [µM] | GI50 (Ly7 DLBCL cells; Table 10, BCL6 dependent) [µM] | GI50 (Ly10 DLBCL cells) [µM] | GI50 (Toledo DLBCL cells; [4]) [µM] | GI50 (Toledo DLBCL cells; Table 10, BCL6 independent) [µM] | GI50 (Ly1B50 DLBCL cells; Table 9) [µM] | GI50 (Ly1 DLBCL cells; Table 9) [µM] | GI50 (WSU-DLCL2 DLBCL cells; Table 9) [µM] | GI50 (Ly3 DLBCL cells; Table 4) [µM] | GI50 (Ly7 DLBCL cells; [5]) [µM] | GI50 (Toledo DLBCL cells; [7]) [µM] | GI50 (Ly1B50 DLBCL cells; Table 4) [µM] | GI50 (Ly1 DLBCL cells; Table 4) [µM] | GI50 (WSU-DLCL2 DLBCL cells; Table 4) [µM] | also measured |
| --- | --- | --- | --- | --- | --- | --- | --- | --- | --- | --- | --- | --- | --- | --- | --- | --- | --- | --- | --- | --- | --- |
| – | – | – | 29 ± 14 | > 125 | O=C(O)CCN1C(=O)/C(=C2/C(=O)N(CC(=O)OCc3ccc(C(F)(F)F)cc3)c3ccc(Cl)cc32)SC1=S [Compound 375] | – | – | – | – | – | – | – | – | – | > 125 | > 125 | > 125 | > 125 | > 125 | > 125 | – |
| – | – | – | 104 | > 125 | O=C(O)CCN1C(=O)/C(=C2/C(=O)N(CC(=O)OCc3ccc(F)cc3)c3ccc(Cl)cc32)SC1=S [Compound 377] | – | – | – | – | – | – | – | – | – | > 125 | > 125 | > 125 | > 125 | > 125 | > 125 | – |
| – | – | – | 53.4 | > 125 | O=C(O)CCN1C(=O)/C(=C2/C(=O)N(CC(=O)OCc3cccc(F)c3)c3ccc(Cl)cc32)SC1=S [Compound 378] | – | – | – | – | – | – | – | – | – | > 125 | > 125 | > 125 | > 125 | > 125 | > 125 | – |
| – | – | – | 18 ± 7 | 69 ± 4 | O=C(O)CCN1C(=O)/C(=C2/C(=O)N(CC(=O)OCc3cccc(C(F)(F)F)c3)c3ccc(Cl)cc32)SC1=S [Compound 380] | – | – | – | – | – | – | – | – | – | 71 ± 18 | 94 ± 19 | 93 ± 23 | 68 | 106 ± 20 | 67 ± 12 | – |
| – | – | – | 22 ± 8 | > 125 | C[C@@H](OC(=O)CN1C(=O)/C(=C2\SC(=S)N(CCC(=O)O)C2=O)c2cc(Cl)ccc21)c1ccccc1 [Compound 381] | – | – | – | – | – | – | – | – | – | > 125 | > 125 | > 125 | > 125 | > 125 | > 125 | – |
